Laboratory results: patent US20170290774A1, “NEUROKININ-1 RECEPTOR ANTAGONIST COMPOSITION FOR TREATMENT OF DISEASES AND CONDITIONS OF THE RESPIRATORY TRACT” (PLUS VITECH, S.L., priority 2014, published 2017)

Legend:
TGFβ2 = assay: Immunohistochemistry of TGFβ2 in respiratory tract tissue of sodium hypochlorite aerosol-treated rabbits; type: in vivo, New Zealand albino rabbits
Description: (§1) It is known that the factors TGF-α, TGF-β 1, TGF-β 2, TGF-β 3, SPARC, MMP-3; MMP-7, MMP-9, MMP-11, MMP-13 and MMP-14, TGF-β, NF-kB, EGF, MMP-9, VEGF and TNF-α which are produced by lung cells (pneumocytes, fibroblasts and vascular endothelial cells) and inflammatory cells (macrophages, lymphocytes and polymorphonuclear leukocytes) are involved in the pathophysiology and development of said respiratory tract diseases. […] Herein, 27 New Zealand albino rabbits (New Zealand White Rabbit) with an initial average weight about 3 kg were used in this example. All subjects were administered an aerosol of a solution consisting of a mixture of water and sodium hypochlorite (35 g sodium hypochlorite per liter of water) at a rate of 5 mL of said solution by inhalation three times a day for 7 days (days 1 to 7 of experimentation). Subsequently, from days 3 to 7, a group of 3 rabbits (Group 1) was administered an oral dose of 10 mg/kg body weight per day, another group of 3 rabbits (Group 2) was administered an oral dose of 40 mg/kg body weight per day, a third group (Group 3) was administered an oral dose of 80 mg/kg body weight per day and a fourth group (Group 4) was administered an oral dose of 100 mg/kg body weight per day. […] This mixture was administered as an aerosol by inhalation, also from days 3 to 7, to a group of 3 rabbits (group 5) at a dose of 0.05 mg/kg body weight per day, to another group of three rabbits (Group 6) at a dose of 0.1 mg/kg body weight per day, to another group of three rabbits (Group 7) at a dose of 0.2 mg/kg body weight per day and to another group of three rabbits (Group 8) at a dose of 0.4 mg/kg body weight per day. A placebo consisting only of olive oil was administered from days 3 to 7 to a control group of 3 rabbits (placebo group). In parallel, 3 rabbits were kept under identical conditions but were not administered any treatment nor the aforementioned sodium hypochlorite solution (control group). […] On day 7 of the experiment all animals were euthanized and necropsied. […] Samples were taken at the peripheral level of the lung parenchyma, just below the pleural surface. Tissue samples were also taken from the nasal cavity, pharynx, larynx and bronchi. Immunohistochemistry studies were performed for all samples to evaluate the levels of the markers TGF-α, TGF-β 1, TGF-β 2, TGF-β 3 SPARC, MMP-3; MMP-7, MMP-9, MMP-11, MMP-14, TGF-β, TNF-α and VEGF. In said immunohistochemistry studies, a sample of each sample was dehydrated by treatment with increasing concentrations of ethanol and finally xylene. Subsequently said dried samples were embedded in paraffin, thus creating a block. Said paraffin blocks were cut on a microtome to a thickness of 5 μm, and the resulting sections (slices) were placed on slides suitable for conducting immunohistochemistry techniques. Subsequently, the sections were deparaffinised by immersion in xylene and then rehydrated through immersion in a series of solutions containing decreasing concentrations of ethanol and, finally, water. […] The samples were then allowed to cool to room temperature over 10 minutes. Endogenous peroxidase activity was blocked by treatment with 3% hydrogen peroxide over 30 min at room temperature. […] In order to verify the expression of NK1 receptors, the cell samples were incubated in the presence of anti-NK1 antibodies ([…], Sigma-Aldrich) diluted 1:1000 at 4° C. overnight. After this time they were washed in 0.05M Tris buffer at room temperature. Subsequently, Envision System-HRP (Dako) reagents were added for 30 min at room temperature. Once this time had expired, the samples were again washed with 0.05 M Tris buffer, and immunoreactivity was visualized by light microscopy with a chromogenic solution with 3,3'-diaminobenzidine (DAB+; Dako, USA). In order to differentiate the cell nuclei, these were lightly stained with haematoxylin. Samples that were not incubated with the primary antibody, but wherein this was replaced by a non-immune serum were used as negative controls. […]

TGFβ3 = assay: Immunohistochemistry of TGFβ3 in respiratory tract tissue of sodium hypochlorite aerosol-treated rabbits; type: in vivo, New Zealand albino rabbits
Description: as §1

[1] = bronchial tissue, Group 1, oral 10 mg/kg per day
[2] = bronchial tissue, Group 2, oral 40 mg/kg per day
[3] = bronchial tissue, Group 3, oral 80 mg/kg per day
[4] = bronchial tissue, Group 4, oral 100 mg/kg per day
[5] = laryngeal tissue, Group 1, oral 10 mg/kg per day
[6] = laryngeal tissue, Group 2, oral 40 mg/kg per day
[7] = laryngeal tissue, Group 3, oral 80 mg/kg per day
[8] = laryngeal tissue, Group 4, oral 100 mg/kg per day
[9] = laryngeal tissue, Group 5, inhalation 0.05 mg/kg per day
[10] = laryngeal tissue, Group 6, inhalation 0.1 mg/kg per day
[11] = laryngeal tissue, Group 7, inhalation 0.2 mg/kg per day
[12] = laryngeal tissue, Group 8, inhalation 0.4 mg/kg per day
[13] = lung tissue, Group 1, oral 10 mg/kg per day
[14] = lung tissue, Group 2, oral 40 mg/kg per day
[15] = lung tissue, Group 3, oral 80 mg/kg per day
[16] = lung tissue, Group 4, oral 100 mg/kg per day
[17] = lung tissue, Group 5, inhalation 0.05 mg/kg per day
[18] = lung tissue, Group 6, inhalation 0.1 mg/kg per day
[19] = lung tissue, Group 7, inhalation 0.2 mg/kg per day
[20] = lung tissue, Group 8, inhalation 0.4 mg/kg per day
[21] = nasal cavity tissue, Group 1, oral 10 mg/kg per day
[22] = nasal cavity tissue, Group 2, oral 40 mg/kg per day
[23] = nasal cavity tissue, Group 3, oral 80 mg/kg per day
[24] = nasal cavity tissue, Group 4, oral 100 mg/kg per day
[25] = nasal cavity tissue, Group 5, inhalation 0.05 mg/kg per day
[26] = nasal cavity tissue, Group 6, inhalation 0.1 mg/kg per day
[27] = nasal cavity tissue, Group 7, inhalation 0.2 mg/kg per day
[28] = nasal cavity tissue, Group 8, inhalation 0.4 mg/kg per day
[29] = pharyngeal tissue, Group 1, oral 10 mg/kg per day
[30] = pharyngeal tissue, Group 2, oral 40 mg/kg per day
[31] = pharyngeal tissue, Group 3, oral 80 mg/kg per day
[32] = pharyngeal tissue, Group 4, oral 100 mg/kg per day
[33] = pharyngeal tissue, Group 5, inhalation 0.05 mg/kg per day
[34] = pharyngeal tissue, Group 6, inhalation 0.1 mg/kg per day
[35] = pharyngeal tissue, Group 7, inhalation 0.2 mg/kg per day
[36] = pharyngeal tissue, Group 8, inhalation 0.4 mg/kg per day

For `C[C@@H](OC1OCCN(Cc2nc(=O)[nH][nH]2)C1c1ccc(F)cc1)c1cc(C(F)(F)F)cc(C(F)(F)F)c1` (stereo in doubt) [Aprepitant, 5-([(2R,3S)-2-((R)-1-[3,5-bis(trifluoromethyl)phenyl]ethoxy)-3-(4-fluorophenyl)morpholino]methyl)-1H-1,2,4-triazol-3(2H)-one], the “Percent increase in TGFβ2 with respect to the control group” value (“Percent increase in TGFβ2” for short) (TGFβ2; [1]) was 1,342.12%, the “Percent increase in TGFβ2” value (TGFβ2; [2]) was 1,008.32% and the “Percent increase in TGFβ2” value (TGFβ2; [3]) was 878.34%. For the same compound, the “Percent increase in TGFβ2” value (TGFβ2; [4]) was 457.45%, the “% Med G5/C: percent increase in marker TGFβ2 with respect to the control group” value (TGFβ2; bronchial tissue, Group 5) was 1,209.34% and the “% Med G6/C: percent increase in marker TGFβ2 with respect to the control group” value (TGFβ2; bronchial tissue, Group 6) was 878.45%. For the same compound, the “% Med G7/C: percent increase in marker TGFβ2 with respect to the control group” value (TGFβ2; bronchial tissue, Group 7) was 328.45%, the “% Med G8/C: percent increase in marker TGFβ2 with respect to the control group” value (TGFβ2; bronchial tissue, Group 8) was 126.45% and the “Percent increase in TGFβ2” value (TGFβ2; [5]) was 1,789.56%. For the same compound, the “Percent increase in TGFβ2” value (TGFβ2; [6]) was 1,398.89%, the “Percent increase in TGFβ2” value (TGFβ2; [7]) was 989.89% and the “Percent increase in TGFβ2” value (TGFβ2; [8]) was 816.89%. For the same compound, the “Percent increase in TGFβ2” value (TGFβ2; [9]) was 1,506.89%, the “Percent increase in TGFβ2” value (TGFβ2; [10]) was 996.89% and the “Percent increase in TGFβ2” value (TGFβ2; [11]) was 560.38%. For the same compound, the “Percent increase in TGFβ2” value (TGFβ2; [12]) was 120.23%, the “Percent increase in TGFβ2” value (TGFβ2; [13]) was 775.23% and the “Percent increase in TGFβ2” value (TGFβ2; [14]) was 582.05%. For the same compound, the “Percent increase in TGFβ2” value (TGFβ2; [15]) was 475.25%, the “Percent increase in TGFβ2” value (TGFβ2; [16]) was 438.55% and the “Percent increase in TGFβ2” value (TGFβ2; [17]) was 797.78%. For the same compound, the “Percent increase in TGFβ2” value (TGFβ2; [18]) was 338.44%, the “Percent increase in TGFβ2” value (TGFβ2; [19]) was 198.92% and the “Percent increase in TGFβ2” value (TGFβ2; [20]) was 125.88%. The “Percent increase in TGFβ2” value (TGFβ2; [21]) was 1,838.85%, the “Percent increase in TGFβ2” value (TGFβ2; [22]) was 1,469.70% and the “Percent increase in TGFβ2” value (TGFβ2; [23]) was 1,290.84%. For the same compound, the “Percent increase in TGFβ2” value (TGFβ2; [24]) was 1,151.85%, the “Percent increase in TGFβ2” value (TGFβ2; [25]) was 1,451.21% and the “Percent increase in TGFβ2” value (TGFβ2; [26]) was 825.63%. The “Percent increase in TGFβ2” value (TGFβ2; [27]) was 252.52%, the “Percent increase in TGFβ2” value (TGFβ2; [28]) was 136.09% and the “Percent increase in TGFβ2” value (TGFβ2; [29]) was 1,575.67%. The “Percent increase in TGFβ2” value (TGFβ2; [30]) was 1,235.45%, the “Percent increase in TGFβ2” value (TGFβ2; [31]) was 980.65% and the “Percent increase in TGFβ2” value (TGFβ2; [32]) was 780.54%. For the same compound, the “Percent increase in TGFβ2” value (TGFβ2; [33]) was 1,202.46%, the “Percent increase in TGFβ2” value (TGFβ2; [34]) was 725.63% and the “Percent increase in TGFβ2” value (TGFβ2; [35]) was 252.52%. For the same compound, the “Percent increase in TGFβ2” value (TGFβ2; [36]) was 136.09%, the “Percent increase in TGFβ3 with respect to the control group” value (shortened to “Percent increase in TGFβ3”) (TGFβ3; [1]) was 672.56% and the “Percent increase in TGFβ3” value (TGFβ3; [2]) was 452.45%. For the same compound, the “Percent increase in TGFβ3” value (TGFβ3; [3]) was 345.32%, the “Percent increase in TGFβ3” value (TGFβ3; [4]) was 236.12% and the “% Med G5/C: percent increase in marker TGFβ with respect to the control group” value (TGFβ3; bronchial tissue, Group 5) was 604.34%. The “% Med G6/C: percent increase in marker TGFβ with respect to the control group” value (TGFβ3; bronchial tissue, Group 6) was 439.53%, the “% Med G7/C: percent increase in marker TGFβ with respect to the control group” value (TGFβ3; bronchial tissue, Group 7) was 234.56% and the “% Med G8/C: percent increase in marker TGFβ with respect to the control group” value (TGFβ3; bronchial tissue, Group 8) was 179.19%. For the same compound, the “Percent increase in TGFβ3” value (TGFβ3; [5]) was 1,234.56%, the “Percent increase in TGFβ3” value (TGFβ3; [6]) was 1,009.78% and the “Percent increase in TGFβ3” value (TGFβ3; [7]) was 899.98%. For the same compound, the “Percent increase in TGFβ3” value (TGFβ3; [8]) was 567.89%, the “Percent increase in TGFβ3” value (TGFβ3; [9]) was 1,183.45% and the “Percent increase in TGFβ3” value (TGFβ3; [10]) was 702.33%. The “Percent increase in TGFβ3” value (TGFβ3; [11]) was 305.32%, the “Percent increase in TGFβ3” value (TGFβ3; [12]) was 132.22% and the “Percent increase in TGFβ3” value (TGFβ3; [13]) was 835.84%. The “Percent increase in TGFβ3” value (TGFβ3; [14]) was 655.71%, the “Percent increase in TGFβ3” value (TGFβ3; [15]) was 496.55% and the “Percent increase in TGFβ3” value (TGFβ3; [16]) was 374.47%. The “Percent increase in TGFβ3” value (TGFβ3; [17]) was 775.37%, the “Percent increase in TGFβ3” value (TGFβ3; [18]) was 427.90% and the “Percent increase in TGFβ3” value (TGFβ3; [19]) was 215.59%. For the same compound, the “Percent increase in TGFβ3” value (TGFβ3; [20]) was 169.46%, the “Percent increase in TGFβ3” value (TGFβ3; [21]) was 2,813.99% and the “Percent increase in TGFβ3” value (TGFβ3; [22]) was 2,128.24%. For the same compound, the “Percent increase in TGFβ3” value (TGFβ3; [23]) was 1,451.25%, the “Percent increase in TGFβ3” value (TGFβ3; [24]) was 1,188.89% and the “Percent increase in TGFβ3” value (TGFβ3; [25]) was 2,168.67%. For the same compound, the “Percent increase in TGFβ3” value (TGFβ3; [26]) was 1,051.06%, the “Percent increase in TGFβ3” value (TGFβ3; [27]) was 482.03% and the “Percent increase in TGFβ3” value (TGFβ3; [28]) was 158.62%. For the same compound, the “Percent increase in TGFβ3” value (TGFβ3; [29]) was 967.72%, the “Percent increase in TGFβ3” value (TGFβ3; [30]) was 879.34% and the “Percent increase in TGFβ3” value (TGFβ3; [31]) was 659.59%. The “Percent increase in TGFβ3” value (TGFβ3; [32]) was 456.45%, the “Percent increase in TGFβ3” value (TGFβ3; [33]) was 879.45% and the “Percent increase in TGFβ3” value (TGFβ3; [34]) was 543.45%. The “Percent increase in TGFβ3” value (TGFβ3; [35]) was 309.45% and the “Percent increase in TGFβ3” value (TGFβ3; [36]) was 112.43%.
